Test results reported in patent EP0036153A1, “1,1-Diphenyl-2-(1,2,4-triazol-1-yl)-ethan-1-oles as antimycotic agents” (BASF Aktiengesellschaft, priority 1980, dated 1981).
In brackets after ≈: the same amount, converted by molar mass. Where a name gives a salt, the structure may show the parent alone. Read-outs that look alike come from different tables or passages of the source.

Assays:
[1] = test system: Candida albicans (Robin) Berkhout No 20/M; assay: Pseudomycelium and mycelium phase test with Candida albicans (minimal inhibitory concentration, 100 % inhibition); type: cell-based; details: microaerophilic, 2 days, 37°C; for MIC: Candida albicans, 48 h, read-out: MHKMyzelph.
Text: Pseudomyzel- und Myzelphasentest mit Candida albicans: • Dieser Test berücksichtigt, daß C. albicans in vivo nicht nur Sproßzellen, sondern auch Pseudomyzel und echtes Myzel ausbilden kann (Dimorphie). In vitro wird die Ausbildung aller Wachstumsphasen dieses Keimes und der Einfluß von antimyzetisch wirksamen Substanzen in folgender Weise geprüft: Candida albicans (Robin) Berkhout No 20/M (Stamm der Mykothek, Nordmark-Werke GmbH) wird mit der Impföse einerseits auf die Oberfläche A des Nährmediums (Brain Heart Infusion, Difco) und andererseits bei B als Stichkultur angeimpft (Figur).
Im Bereich der Stichkultur wird zusätzlich ein Deckglas C aufgelegt (mikroaerophile Bedingungen). Die Petrischale D enthält im Nährmedium eine geometrisch abgestufte Verdünnungsreihe der jeweiligen Prüfsubstanz. Nach Inkubation dieser Testplatten (2 Tage, 37°C) sind in präparatefreien Kontrollplatten im aeroben Berzirk A ausschließlich Sproßzellen (Hefephase), im mikroaerophilen Bezirk B ausschließlich Pseudohyphen und echte Hyphen gewachsen.
Als minimale Hemmkonzentrationen wurden diejenigen Konzentrationsstufen des Prüfpräparates bezeichnet, bei denen eine 100 %ige Hemmung des jeweiligen Pilzwachstums zu beobachten war.
Diese Testanordnung ermöglicht es, zwischen der minimalen Hemmkonzentration der Hefephase (MHKHefephase) ) und der MHK der Pseudomyzelphase bzw. M^yzelphase (MHKMyzelDhase) für Candida albicans zu unterscheiden.
Während die MHK-Werte für die Hefephase bei über 128 µg/ml liegen, ergeben sich für die Mycelphase äußerst niedrige MHK-Werte, wie aus der Tabelle 1 hervorgeht.

[2] = Acute oral toxicity (LD50) in the mouse; type: in vivo; details: for LD50: mouse, in vivo, po, Maus
E. floccosum = assay: Agar dilution test against dermatophytes; type: cell-based; details: Epidermophyton floccosum; E. floccosum No. 157; read-out: MHK
Text: (§1) Die antimikrobielle Wirksamkeit in vitro gegen Dermatophyt wurde im Agar-Dilutionstest (Lit.: P. Klein "Bakteriologische Grundlagen der chemotherapeutischen Laboratoriumspraxis") ermittelt. Das Ergebnis dieser Untersuchungen am Beispiel der Verbindung Nr. 3 zeigt Tabelle 2.

M. audouinii = assay: Agar dilution test against dermatophytes; type: cell-based; details: Microsporum audouinii; M. audouinii No. 4; read-out: MHK
Text: as §1

M. canis = assay: Agar dilution test against dermatophytes; type: cell-based; details: Microsporum canis, read-out: MHK
Text: as §1

M. ferrugineum = assay: Agar dilution test against dermatophytes; type: cell-based; details: M. ferrugineum No. 5; read-out: MHK
Text: as §1

T. mentagroph. = assay: Agar dilution test against dermatophytes; type: cell-based
Text: as §1

T. schoenleinii = assay: Agar dilution test against dermatophytes; type: cell-based; details: T. schoenleinii No. 9; read-out: MHK
Text: as §1

T. violaceum = assay: Agar dilution test against dermatophytes; type: cell-based; details: Trichophyton violaceum; T. violaceum No. 10; read-out: MHK
Text: as §1

SMILES | MIC [1] [µg/mL] | LD50 [2] [mg/kg] | MHKMyzelph. [1] | LD50 (Maus) p.o. [2] [mg/kg] | also measured
OC(Cn1cncn1)(c1ccc(Cl)cc1)c1ccc(Cl)cc1 [Beispiel 1, 1,1-Bis-(4-chlorphenyl)-2-(1.2.4-triazol-1-yl)--äthan-1-ol] | < 0.125 | > 1000 |  |  | 
OC(Cn1cncn1)(c1ccc(Cl)cc1)c1ccc(Cl)cc1 [Beispiel 2, 1,1-Bis-(4-chlorphenyl)-2-(1.2.4-triazol-1-yl)--äthan-1-ol-hydrochlorid] |  |  | <0,125 µg/ml | >1000 | 
OC(Cn1cncn1)(c1ccc(Cl)cc1)c1ccc(Cl)cc1Cl (centres unmarked) [Beispiel 3, 1-(4-Chlorphenyl)-1-(2,4-dichlorphenyl)-2-(1,2,4-triazol-1-yl)-äthan-1-ol] | < 0.125 |  |  | >4000 | MIC (E. floccosum): 16 µg/mL (≈ 43.4 µM); MIC (M. audouinii): 0.25 µg/mL (≈ 0.678 µM); MIC (M. canis; M. canis No. 167): 4 µg/mL (≈ 10.9 µM); MIC (M. canis; M. canis No. 168): 2 µg/mL (≈ 5.43 µM); MIC (M. canis; M. canis No. 169): 8 µg/mL (≈ 21.7 µM); MIC (M. ferrugineum): 0.5 µg/mL (≈ 1.36 µM); MIC (T. mentagroph.; T. mentagroph. No. 172, read-out: MHK): 0.25 µg/mL (≈ 0.678 µM); MHK (T. mentagroph.; T. mentagroph. No. 173): 0,25 µg/ml; MIC (T. schoenleinii): 0.25 µg/mL (≈ 0.678 µM); MIC (T. violaceum): 2 µg/mL (≈ 5.43 µM)
OC(Cn1cncn1)(c1ccc(Cl)cc1)c1ccc(Cl)cc1Cl (centres unmarked) [Beispiel 4, 1-(4-Chlorphenyl)-1-(2,4-dichlorphenyl)-2-(1.2.4--triazol-1-yl)-äthan-1-ol-hydrochlorid] |  |  | <0,125 µg/ml | >1000 | 
OC(Cn1cncn1)(c1ccc(Cl)cc1)c1ccc(Cl)cc1Cl (centres unmarked) [Beispiel 5, 1-(4-Chlorphenyl)-1-(2,4-dichlorphenyl)-2-(1.2.4--triazol-1-yl)-äthan-1-ol-nitrat] |  |  | <0,125 µg/ml | >1000 | 
OC(Cn1cncn1)(c1ccccc1)c1ccccc1Cl (centres unmarked) [Beispiel 6, 1-Phenyl-1-(2-chlorphenyl)-2-(1.2.4-triazol-1-yl)--äthan-1-ol-hydrochlorid] | < 0.125 | > 1000 |  |  | 
OC(Cn1cncn1)(c1ccccc1)c1ccc(Cl)cc1 (centres unmarked) [Beispiel 7, 1-Phenyl-1-(4-chlorphenyl)-2-(1.2.4-triazol-1-yl)-äthan--1-ol-hydrochlorid] |  |  |  | >1000 | 
OC(Cn1cncn1)(c1ccccc1)c1ccc(Cl)cc1 (centres unmarked) [Beispiel 8, 1-Phenyl-1-(4-chlorphenyl)-2-(1.2.4-triazol-1-yl)--äthan-1-ol-nitrat] | < 0.125 | > 1000 |  |  | 
OC(Cn1cncn1)(c1ccccc1)c1ccc(Cl)cc1Cl (centres unmarked) [Beispiel 9, 1-Phenyl-1-(2,4-dichlorphenyl)-2-(1.2.4-triazol-1-yl)--äthan-1-ol] | < 0.125 | > 1000 |  |  | 
OC(Cn1cncn1)(c1ccccc1)c1ccc(Cl)cc1Cl (centres unmarked) [Beispiel 10, 1-Phenyl-1-(2,4-dichlorphenyl)-2-(1.2.4-triazol-1-yl)--äthan-1-ol-hydrochlorid] |  |  | <0,125 µg/ml | >1000 | 
OC(Cn1cncn1)(c1ccccc1)c1ccc(Cl)cc1Cl (centres unmarked) [Beispiel 11, 1-Phenyl-1-(2,4-dichlorphenyl)-2-(1.2.4-triazol-1-yl)--äthan-1-ol-nitrat] |  |  | <0,125 µg/ml | >1000 | 
OC(Cn1cncn1)(c1ccc(Cl)cc1)c1ccccc1Cl (centres unmarked) [Beispiel 12, 1-(2-Chlorphenyl)-1-(4-chlorphenyl)-2-(1.2.4-triazol--1-yl)-äthan-1-ol-hydrochlorid] | 1 | > 1000 |  |  | 
OC(Cn1cncn1)(c1ccccc1Cl)c1ccc(Cl)cc1Cl (centres unmarked) [Beispiel 13, 1-(2-Chlorphenyl)-1-(2,4-dichlorphenyl)-2-(1.2.4-triazol-1-yl)-äthan-1-ol] | 1 (≈ 2.71 µM) | > 1000 |  |  | 
OC(Cn1cncn1)(c1ccccc1Cl)c1ccc(Cl)cc1Cl (centres unmarked) [Beispiel 14, 1-(2-Chlorphenyl)-1-(2,4-dichlorphenyl)-2-(1.2.4-triazol-1-yl)-äthan-1-ol-hydrochlorid] |  |  | 1 µg/mL | >1000 | 
OC(Cn1cncn1)(c1cccc(Cl)c1)c1ccc(Cl)cc1Cl (centres unmarked) [Beispiel 15, 1-(3-Chlorphenyl)-1-(2,4-dichlorphenyl)-2-(1.2.4-triazol-1-yl)-äthan-1-ol] |  | > 1000 | <0,125 µg/ml |  | 
OC(Cn1cncn1)(c1cccc(Cl)c1)c1ccc(Cl)cc1Cl (centres unmarked) [Beispiel 16, 1-(3-Chlorphenyl)-1-(2,4-dichlorphenyl)-2-(1.2.4-triazol-1-yl)-äthan-1-ol-hydrochlorid] |  |  | 1 µg/mL | >1000 | 
